The target of one test is T1, human C5 (Homo sapiens, UniProt P01031).
T1 construct: tissue TCS Biosciences (serum); host or cells: human serum
As to the kind of experiment: SPR cross blocking. In kind it is binding. The settings on record: HBS-EP, qualitative. As for the experimental part:
To test for cross blocking, arising from overlapping epitopes, or cooperativity between knob domains, we performed a surface plasmon resonance (SPR) cross blocking experiment, where, using a Biacore 8K, we saturated a C5-coated sensor chip with two 20 µM injections of knob domain peptide before injecting a different peptide at 20 µM to assess its capacity to bind. This provides a qualitative measure of cross blocking, whereby an increase in response units (RUs) indicates ternary complex formation, stoichiometries, or kinetics cannot be reliably derived with concurrent dissociation of both peptides (Figure 2).
On a Biacore 8K (GE Healthcare, Amersham, UK), human C5 was amine coupled to a CM5 chip using the same protocol as for C5b. A final immobilisation level of approximately 1000–2000 RUs was obtained. For cross blocking, the surface was saturated with two sequential injections of a 20 µM knob domain solution in HBS-EP buffer (GE Healthcare, Amersham, UK) using a flow rate of 30 µL/min and contact time of 300 s. This was immediately followed with an injection of a second knob domain peptide, again at 20 µM in HBS-EP, with a flow rate of 30 µL/min and a contact time of 270 s, and the dissociation phase was measured for 600 s. […]

The next test deals with T2, human C5b (Homo sapiens, UniProt P01031).
T2 construct: Upon cleavage of C5a, the remaining domains of the α-chain undergo a substantial conformational change; C5a was removed using a spin column with 30 kDa cut-off; tissue TCS Biosciences (serum); host or cells: human serum; C5 cleaved in house with CVF, factor B and factor D
T2 sequence (P01031 752-1676 limits assumed): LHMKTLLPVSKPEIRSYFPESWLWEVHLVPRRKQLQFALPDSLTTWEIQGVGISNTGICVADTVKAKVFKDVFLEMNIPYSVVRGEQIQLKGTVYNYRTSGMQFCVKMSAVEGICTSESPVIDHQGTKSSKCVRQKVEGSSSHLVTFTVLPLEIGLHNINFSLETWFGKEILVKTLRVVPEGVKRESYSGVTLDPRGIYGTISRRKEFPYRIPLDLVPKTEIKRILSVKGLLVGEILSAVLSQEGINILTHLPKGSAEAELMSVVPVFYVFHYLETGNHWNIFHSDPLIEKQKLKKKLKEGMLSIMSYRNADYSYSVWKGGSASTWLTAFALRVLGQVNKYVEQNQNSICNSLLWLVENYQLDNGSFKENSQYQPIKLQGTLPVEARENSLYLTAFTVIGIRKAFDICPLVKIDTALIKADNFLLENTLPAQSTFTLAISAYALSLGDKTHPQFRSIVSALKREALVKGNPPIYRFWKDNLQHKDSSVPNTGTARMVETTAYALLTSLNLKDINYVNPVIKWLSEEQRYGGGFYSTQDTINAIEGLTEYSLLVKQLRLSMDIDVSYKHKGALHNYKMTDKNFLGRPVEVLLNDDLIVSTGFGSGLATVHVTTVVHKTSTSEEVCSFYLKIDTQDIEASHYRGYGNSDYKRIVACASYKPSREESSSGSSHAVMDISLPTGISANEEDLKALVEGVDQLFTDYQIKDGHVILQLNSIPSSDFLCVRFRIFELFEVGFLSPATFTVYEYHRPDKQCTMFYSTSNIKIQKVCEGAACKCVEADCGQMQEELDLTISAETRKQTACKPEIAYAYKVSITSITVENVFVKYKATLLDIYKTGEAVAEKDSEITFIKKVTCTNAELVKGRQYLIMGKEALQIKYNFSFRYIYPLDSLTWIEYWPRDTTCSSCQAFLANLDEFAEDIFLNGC
T2 sequence (P01031 19-673 limits assumed): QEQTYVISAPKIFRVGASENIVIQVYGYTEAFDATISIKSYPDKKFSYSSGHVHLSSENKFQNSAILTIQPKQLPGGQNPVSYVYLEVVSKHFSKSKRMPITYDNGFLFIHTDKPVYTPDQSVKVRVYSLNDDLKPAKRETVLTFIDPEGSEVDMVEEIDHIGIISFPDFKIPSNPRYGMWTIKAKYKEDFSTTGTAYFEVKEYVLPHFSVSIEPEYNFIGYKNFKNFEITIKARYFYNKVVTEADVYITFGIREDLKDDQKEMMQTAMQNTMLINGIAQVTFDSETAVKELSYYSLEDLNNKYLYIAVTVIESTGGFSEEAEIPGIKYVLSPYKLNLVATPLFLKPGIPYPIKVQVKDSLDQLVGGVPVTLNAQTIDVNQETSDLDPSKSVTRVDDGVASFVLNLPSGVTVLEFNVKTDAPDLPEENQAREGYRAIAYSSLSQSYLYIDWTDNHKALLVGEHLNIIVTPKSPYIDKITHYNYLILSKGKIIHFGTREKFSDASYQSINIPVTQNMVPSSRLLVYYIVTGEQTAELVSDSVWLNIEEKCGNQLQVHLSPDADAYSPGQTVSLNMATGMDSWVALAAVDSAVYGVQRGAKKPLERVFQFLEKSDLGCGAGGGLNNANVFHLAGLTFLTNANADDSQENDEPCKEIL
As to the kind of experiment: SPR single-cycle kinetics, binding to C5b. As for the experimental part: Human C5 was affinity purified using an E141A, H164A OmCI column ([Macpherson et al., 2018]). Briefly, human serum (TCS Biosciences, Botolph Claydon, UK) was diluted 1:1 (v/v) with phosphate buffered saline (PBS), 20 mM ethylenediaminetetraacetic acid (EDTA), and applied to a 5 mL Hi-Trap NHS column (GE Healthcare, Amersham UK), which contained 20 mg of E141A H164A OmCI protein, at a rate of 1 mL/min. The column was washed with 5× column volumes (CV) of PBS, C5 was then eluted using 2 M MgCl2 and immediately dialysed into PBS. C5b was prepared from human C5 by incubating C5 with CVF, factor B and factor D, at a 1:10 molar ratio, as previously described ([Jore et al., 2016]). C5a was removed using a spin column with 30 kDa cut-off (Thermo Fisher Scientific, Horsham, UK).
On a Biacore 8K (GE Healthcare, Amersham, UK), human C5b was immobilised on a CM5 chip (GE Healthcare, Amersham, UK). Flow cells were activated using a standard immobilisation protocol: EDC/NHS was mixed at 1:1 ratio (flow rate, 10 µL/min; contact time, 30 s). C5b, at 1 µg/mL, or C5b-6 (Complement Technologies, Tyler, TX), at 2 µg/mL, in pH 4.5 sodium acetate buffer, were immobilised on flow cell two only (flow rate, 10 µL/min; contact time, 420 s). Finally, ethanolamine was applied to both flow cells (flow rate, 10 µL/min; contact time, 420 s). A final immobilisation level of 500–700 RUs was obtained for C5b and 1000–1150 RUs were obtained for C5b-6. Single-cycle kinetics were measured using a seven-point, threefold serial dilution (spanning a range of 1 µM to 1.4 nM) in HBS-EP buffer (GE Healthcare, Amersham, UK). A high flow rate of 40 µL/min was used, with a contact time of 300 s and a dissociation time of 2700 s. Binding to the reference surface was subtracted, and the data were fitted to a single-site binding model using Biacore evaluation software. All sensorgrams were inspected for evidence of mass transport limitation using the flow rate-independent component of the mass transfer constant (tc).
Table 4.1. SPR single-cycle kinetics of knob domains binding to human C5b.

“Also recorded” adds a separate entry of the source. Bridges are numbered along the chain shown (N, C = ends). Where no end group is shown, it is not given here.

Data on one sequence can be found in paper PMC7972453, “The allosteric modulation of complement C5 by knob domain peptides” (eLife, 2021).

T1 sequence (P01031 678-1676 limits assumed): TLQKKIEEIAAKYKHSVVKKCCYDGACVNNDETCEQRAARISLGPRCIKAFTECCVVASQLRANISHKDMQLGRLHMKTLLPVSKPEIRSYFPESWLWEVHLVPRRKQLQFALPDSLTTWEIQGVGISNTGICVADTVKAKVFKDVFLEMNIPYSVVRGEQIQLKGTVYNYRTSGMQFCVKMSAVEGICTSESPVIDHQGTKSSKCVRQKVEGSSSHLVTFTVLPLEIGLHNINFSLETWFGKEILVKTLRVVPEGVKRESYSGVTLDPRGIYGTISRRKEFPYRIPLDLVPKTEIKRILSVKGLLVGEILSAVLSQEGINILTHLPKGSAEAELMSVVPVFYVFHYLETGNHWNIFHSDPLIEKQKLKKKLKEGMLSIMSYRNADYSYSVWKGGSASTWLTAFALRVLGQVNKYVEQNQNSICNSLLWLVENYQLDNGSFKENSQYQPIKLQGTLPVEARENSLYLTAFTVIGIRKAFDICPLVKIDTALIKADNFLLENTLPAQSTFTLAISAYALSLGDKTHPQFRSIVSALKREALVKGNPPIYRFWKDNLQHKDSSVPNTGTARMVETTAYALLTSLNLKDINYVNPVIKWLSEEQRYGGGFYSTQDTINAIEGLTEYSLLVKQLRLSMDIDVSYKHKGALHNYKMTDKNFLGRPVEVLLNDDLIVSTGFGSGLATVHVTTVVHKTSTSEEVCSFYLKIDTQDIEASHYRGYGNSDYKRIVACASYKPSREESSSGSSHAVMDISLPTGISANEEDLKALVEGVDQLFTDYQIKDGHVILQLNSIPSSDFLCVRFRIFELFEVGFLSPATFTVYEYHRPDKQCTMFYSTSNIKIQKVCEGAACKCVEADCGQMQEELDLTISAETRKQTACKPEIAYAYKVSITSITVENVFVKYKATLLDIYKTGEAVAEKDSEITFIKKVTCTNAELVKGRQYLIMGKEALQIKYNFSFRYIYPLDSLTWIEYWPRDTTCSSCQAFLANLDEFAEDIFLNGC
T1 sequence (P01031 19-673 limits assumed): as the sequence (P01031 19-673 limits assumed) above

Turning to “SVCPDGFDWGYGCAAGSSRFCTRHDWCCYDERADSHTYGFCTGNRVENLYFQ (disulfide 3-28, 13-21, 27-41) [K8]”, on human C5 (two 20 µM injections of K57, then 20 µM second peptide), the “binding to C5 saturated with K57” value was “can bind, albeit at a lower level; also recorded: could still partially bind”. For the same sequence, the “binding to C5 saturated with K92” value at human C5 (two 20 µM injections of K92, then 20 µM second peptide) was “can bind, albeit at a lower level; also recorded: still able to bind, albeit to a lesser degree”. In addition, at human C5b (SPR single-cycle kinetics), the “binding to C5b (in words)” value is recorded as “did not bind C5b”. Also, the Stoichiometric ratio on human C5b (replicate n=1) was determined as 0.1; on human C5b (replicate n=2), 0.1; on human C5b (replicate n=3), 0.2. The “comment (binding)” value on human C5b (replicate n=1), on human C5b (replicate n=2), at human C5b (replicate n=3) and on human C5b (summary of n=3) was “Non-binding” throughout. The Mean stoichiometric ratio on human C5b (summary of n=3) was found to be 0.1.
